Target: T1, RIPK1 (Homo sapiens, UniProt Q13546)
T1 construct: endogenous in cells
T1 sequence (Q13546 1-671): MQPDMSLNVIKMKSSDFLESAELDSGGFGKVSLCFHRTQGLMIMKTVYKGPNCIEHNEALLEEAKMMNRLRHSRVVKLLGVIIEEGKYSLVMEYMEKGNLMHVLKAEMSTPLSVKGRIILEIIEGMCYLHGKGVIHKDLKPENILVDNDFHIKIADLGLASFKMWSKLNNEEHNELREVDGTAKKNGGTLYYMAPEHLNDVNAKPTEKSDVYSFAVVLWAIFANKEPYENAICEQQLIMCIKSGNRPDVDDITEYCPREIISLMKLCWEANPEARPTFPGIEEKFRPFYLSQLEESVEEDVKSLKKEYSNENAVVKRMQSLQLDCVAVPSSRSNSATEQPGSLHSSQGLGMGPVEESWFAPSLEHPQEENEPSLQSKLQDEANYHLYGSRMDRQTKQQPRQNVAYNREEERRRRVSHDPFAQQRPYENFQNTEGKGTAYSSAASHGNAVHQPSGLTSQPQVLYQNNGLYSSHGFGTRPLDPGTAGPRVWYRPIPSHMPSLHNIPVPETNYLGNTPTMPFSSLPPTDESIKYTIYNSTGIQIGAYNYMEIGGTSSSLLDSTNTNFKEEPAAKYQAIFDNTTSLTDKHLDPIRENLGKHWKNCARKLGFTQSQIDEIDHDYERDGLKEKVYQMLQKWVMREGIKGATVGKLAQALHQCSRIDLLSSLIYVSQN
Assay: RIPK1 degradation Western Blot assay
Type: cell-based
Conditions: human cells, 24 h incubation at 37° C., read-out: Degradation Activity (DC50, concentration at which 50% of RIPK1 kinase has been degraded)
Protocol: Cells were seeded in 6-well cell culture plates overnight prior to treatment and incubated with the indicated doses of compounds for 24 h at 37° C. Then, cell pellets were collected and resuspended with RIPA lysis buffer, which was added with 1% […] inhibitor and phosphatase inhibitor Cocktail. Whole-cell protein lysates were sonicated on ice for 20 seconds and centrifuged at 12 000 rpm for 20 min at 4° C. The supernatants were determined using the BCA method. Proteins were separated by sodium dodecyl sulfate-polyacrylamide gel electrophoresis and transferred to polyvinylidene fluoride membranes. The membranes were incubated with blocking buffer for 1 h. Then, the membranes were incubated at 4° C. overnight with the primary antibodies. After washing, the membranes were incubated for 1 h at room temperature with the secondary antibody and washed again. Changes in protein expression was detected using an enhanced chemiluminescence detection reagent. RIPK1 antibody was purchased from Santa Cruz.
The activities of exemplary compounds as described herein, measured in terms of the degradation concentration (DC50 representing the concentration at which 50% of the target, in this case RIPK1 kinase, has been degraded), are provided in Table 11. In Table 11, a DC50 value less than 1 μM is indicated as an “A;” a DC50 value from 1 μM to 10 μM is indicated as a “B” and a DC50 value of greater than 10 μM is indicated as a “C.”

DC50 | SMILES
1000 to 10000 nM | Cc1ncsc1-c1ccc([C@H](C)NC(=O)[C@@H]2C[C@@H](O)CN2C(=O)[C@@H](NC(=O)CCN2CC3(CC(Oc4ccc(C(=O)NCCCn5cc(-c6ccc7c(c6)CCN7C(=O)Cc6cccc(OC(F)(F)F)c6)c6c(N)ncnc65)cn4)C3)C2)C(C)(C)C)cc1 [Compound 38]
< 1000 nM | Cc1ncsc1-c1ccc([C@H](CC(=O)NCCCCCCCCC(=O)NCCCn2cc(-c3ccc4c(c3)CCN4C(=O)Cc3cccc(OC(F)(F)F)c3)c3c(N)ncnc32)NC(=O)[C@@H]2C[C@@H](O)CN2C(=O)[C@H](NC(=O)C2(F)CC2)C(C)(C)C)cc1 [Compound 40, (2S,4R)—N—((S)-3-((9-((3-(4-amino-5-(1-(2-(3-(trifluoromethoxy)phenyl)acetyl)indolin-5-yl)-7H-pyrrolo[2,3-d]pyrimidin-7-yl)propyl)amino)-9-oxononyl)amino)-1-(4-(4-methylthiazol-5-yl)phenyl)-3-oxopropyl)-1-((R)-2-(1-fluorocyclopropane-1-carboxamido)-3,3-dimethylbutanoyl)-4-hydroxypyrrolidine-2-carboxamide]
< 1000 nM | Cc1ncsc1-c1ccc([C@H](CC(=O)N2CCN(c3ccc(C#Cc4ccc(C(=O)NCCCn5cc(-c6ccc7c(c6)CCN7C(=O)Cc6cccc(OC(F)(F)F)c6)c6c(N)ncnc65)cc4)cn3)CC2)NC(=O)[C@@H]2C[C@@H](O)CN2C(=O)[C@@H](NC(=O)C2(F)CC2)C(C)(C)C)cc1 [Compound 46]
> 10000 nM | Cc1ncsc1-c1ccc([C@H](CC(=O)N2CCC(N3CCN(c4ccc(C#Cc5ccc(C(=O)NCCCn6cc(-c7ccc8c(c7)CCN8C(=O)Cc7cccc(OC(F)(F)F)c7)c7c(N)ncnc76)cc5)cn4)CC3)CC2)NC(=O)[C@@H]2C[C@@H](O)CN2C(=O)[C@@H](NC(=O)C2(F)CC2)C(C)(C)C)cc1 [Compound 47]
1000 to 10000 nM | Nc1ncnc2c1c(-c1ccc3c(c1)CCN3C(=O)Cc1cccc(OC(F)(F)F)c1)cn2CCCNC(=O)c1ccc(C#CC2CCN(C(=O)CN3CCC(c4ccc(NC5CCC(=O)NC5=O)cc4)CC3)CC2)cc1 (stereo not shown) [Compound 69]
< 1000 nM | Cn1c(=O)n(C2CCC(=O)NC2=O)c2ccc(CCC(=O)N3CCC(N4CCC(C#Cc5ccc(C(=O)NCCCn6cc(-c7ccc8c(c7)CCN8C(=O)Cc7cccc(OC(F)(F)F)c7)c7c(N)ncnc76)cc5)CC4)CC3)cc21 (stereo not shown) [Compound 78]

Second part, the compound before the results:

SMILES | DC50
Cc1ncsc1-c1ccc([C@H](C)NC(=O)[C@@H]2C[C@@H](O)CN2C(=O)[C@@H](NC(=O)CCN2CCC(C#Cc3ccc(C(=O)NCCCn4cc(-c5ccc6c(c5)CCN6C(=O)Cc5cccc(OC(F)(F)F)c5)c5c(N)ncnc54)cc3)CC2)C(C)(C)C)cc1 [Compound 36] | < 1000 nM
Cc1ncsc1-c1ccc([C@H](CC(=O)N2CCC(N3CCC(C#Cc4ccc(C(=O)NCCCn5cc(-c6ccc7c(c6)CCN7C(=O)Cc6cccc(OC(F)(F)F)c6)c6c(N)ncnc65)cc4)CC3)CC2)NC(=O)[C@@H]2C[C@@H](O)CN2C(=O)[C@@H](NC(=O)C2(F)CC2)C(C)(C)C)cc1 [Compound 45] | < 1000 nM
Nc1ncnc2c1c(-c1ccc3c(c1)CCN3C(=O)Cc1cccc(OC(F)(F)F)c1)cn2CCCNC(=O)CCCCNC(=O)CN1CCC(c2ccc(NC3CCC(=O)NC3=O)cc2)CC1 (stereo not shown) [Compound 62] | < 1000 nM
Nc1ncnc2c1c(-c1ccc3c(c1)CCN3C(=O)Cc1cccc(OC(F)(F)F)c1)cn2CCCNC(=O)c1ccc(C#CC2CCN(C3CCN(C(=O)CN4CCC(c5ccc(NC6CCC(=O)NC6=O)cc5)CC4)CC3)CC2)cc1 (stereo not shown) [Compound 66] | < 1000 nM
Nc1ncnc2c1c(-c1ccc3c(c1)CCN3C(=O)Cc1cccc(OC(F)(F)F)c1)cn2CCCNC(=O)c1ccc(C#Cc2ccc(N3CCN(C(=O)CN4CCC(c5ccc(NC6CCC(=O)NC6=O)cc5)CC4)CC3)nc2)cc1 (stereo not shown) [Compound 67] | < 1000 nM
Nc1ncnc2c1c(-c1ccc3c(c1)CCN3C(=O)Cc1cccc(OC(F)(F)F)c1)cn2CCCNC(=O)c1ccc(C#Cc2ccc(N3CC4(CN(C(=O)CN5CCC(c6ccc(NC7CCC(=O)NC7=O)cc6)CC5)C4)C3)nc2)cc1 (stereo not shown) [Compound 68] | < 1000 nM
Cc1ncsc1-c1ccc([C@H](C)NC(=O)[C@@H]2C[C@@H](O)CN2C(=O)[C@@H](NC(=O)CCCCCCCCNC(=O)c2ccc(-c3cc(N4CCC(C(=O)N5N=CCC5c5ccccc5)CC4)ncn3)cc2)C(C)(C)C)cc1 (stereo partly shown) [Compound 77] | > 10000 nM
Cn1c(=O)n(C2CCC(=O)NC2=O)c2ccc(CCC(=O)N3CCN(c4ccc(C#Cc5ccc(C(=O)NCCCn6cc(-c7ccc8c(c7)CCN8C(=O)Cc7cccc(OC(F)(F)F)c7)c7c(N)ncnc76)cc5)cn4)CC3)cc21 (stereo not shown) [Compound 79] | < 1000 nM
Cn1c(=O)n(C2CCC(=O)NC2=O)c2ccc(CCC(=O)N3CCC(C#Cc4ccc(C(=O)NCCCn5cc(-c6ccc7c(c6)CCN7C(=O)Cc6cccc(OC(F)(F)F)c6)c6c(N)ncnc65)cc4)CC3)cc21 (stereo not shown) [Compound 80] | < 1000 nM
Cn1c(=O)n(C2CCC(=O)NC2=O)c2ccc(CCC(=O)c3ccc(C#Cc4ccc(C(=O)NCCCn5cc(-c6ccc7c(c6)CCN7C(=O)Cc6cccc(OC(F)(F)F)c6)c6c(N)ncnc65)cc4)cn3)cc21 (stereo not shown) [Compound 81] | < 1000 nM

From US20240123073A1, “NOVEL RIPK1 KINASE TARGETING PROTACS AND METHODS OF USE THEREOF” (Baylor College of Medicine, priority 2020, published 2024)
